Data as given in patent publication US20260184692A1, “HETEROCYCLIC COMPOUNDS, PREPARATION METHODS AND USES THEREOF” (InventisBio Co., Ltd., priority 2022, published 2026).

Assays:
OVCAR3 Cells = assay: OVCAR3 Cell Viability Assay (CellTiter-Glo); format: cell-based; details: Homo sapiens, OVCAR-3, 144 h, 6 days incubation, read-out: OVCAR3 CTG IC50
Description: (§1) OVCAR3 Cells (ATCC, Cat #HTB-161) were seeded at a density of 2000 cells/well in a 96-well clear bottom plate (Greiner, Cat #655098) in 100 μL of complete media (RPMI1640+20% FBS+0.01 mg/mL human insulin). One hundred microliter of complete media was added into the blank well (column 1) for low control. Cells were allowed to adhere to the plate overnight in the incubator at 37° C., 5% CO2. On the following day, 0.5 μL of serially-diluted compounds were added to the cells (columns 2-10) and incubated for 6 days at 37 C, 5% CO2 (final 0.5% DMSO concentration); 0.5 μL of DMSO solution was added into the wells (column 11) for high control. Cell viability was detected according to the CellTiter-Glo Luminescent Cell Viability Assay Kit (Promega, Cat #G7573). Luminescence was recorded on the Tecan Spark plate reader. Inhibition rate (IR) of the tested compounds was determined by the following formula: IR (%)=(1−(RLUcompound−RLUlow control)/(RLUhigh control−RLUlow control))×100%. The IC50 value was calculated using the non-linear regression equation: Y=Bottom+(Top−Bottom)/(1+10^((Log IC50−X)×HillSlope)), where X is Log of compound concentration, Y is percent inhibition (IR (%)), Top and Bottom are plateaus in same units as Y.

[1] = Human Plasma Protein Binding Assay (dialysis); format: in vitro ADME; details: 1 μM compound, dialysis 6 hr at 37 °C
Description: The plasma protein binding of compounds in human plasma was determined using a dialysis method. The dialysis membrane strips were prepared by soaking them in ultra-pure water for about 1 hr at room temperature, followed by separation and soaking in ethanol:water (20:80 v:v) for about 20 min, and a final rinse with ultra-pure water. Prior to use, the membranes were rinsed and soaked for another 20 min in ultra-pure water.
The blank plasma samples were thawed, centrifuged and verified its pH values. Only the plasma with pH between 7.0-8.0 was used in the experiment. The final concentration of compound in the spiked plasma is 1 μM, with final DMSO<=1%. All samples were prepared in triplicates. The time zero (T0) samples was used for determining the recovery of the compound of interest after dialysis. It was prepared in the same way as other dialysis samples except it was stored at 2-8° C. before LC-MS/MS analysis.
The other spiked plasma samples were loaded onto the dialysis device and incubated at and 37±1° C. with 5% CO2 for 6 hr. At the end of the dialysis, aliquots of samples from the plasma and buffer sides of the dialysis device were taken and processed for LC-MS/MS analysis.
The % Unbound, % Bound, and % Recovery of the compounds were calculated from the peak area ratios of the analyte and internal standard in the plasma and buffer samples as shown in the following equations:
[formula] [formula] [formula] • where [F] is the peak area ratio of analyte/internal standard on the buffer (receiver) side of the membrane; [T] is the peak area ratio of analyte/internal standard on the plasma (donor) side of the membrane; [T0] is the peak area ratio of analyte/internal standard in the plasma sample at time zero.

[2] = Human Microsomal Clearance Assay; format: in vitro ADME; details: pH 7.4, human liver microsomes 0.5 mg/mL, 1 μM compound, 2 mM NADPH; for CLint scaled at 1 μM: in vitro intrinsic clearance
Description: This study aimed to assess the metabolic stability of a compound in human liver microsomes using a microsomal clearance assay.
A mixture containing 100 mM potassium phosphate, pH 7.4, 0.5 mg/mL liver microsomes, 2 mM NADPH, and 1 μM compound were prepared and added to 96-well plate. The plates were then incubated at 37° C. for different time points (0, 5, 15, 30, 45 minutes) and the reaction was stopped with acetonitrile solution containing an internal standard. The samples were then analyzed by LC/MS/MS to determine how much of the compound remained at each time point. The elimination rate constant and half-life were calculated from the data as follows: Elimination rate constant (k)=−slope; Half-life (T1/2)=0.693/k.
The in vitro intrinsic clearance, Clint, was calculated from the T1/2 as follows: Clint=(0.693/T1/2)×(1/(microsomal protein concentration (0.5 mg/mL)))×Physiological Scaling Factor.

Mouse PK Assay = format: in vivo; details: plasma, male BALB/c mouse; for MRT: IV; for half-life: single oral dose 5 mg/kg, read-out: PO T1/2 (converted)
P450 2C9 = molecular target: T1, P450 2C9 (Homo sapiens, UniProt P11712); assay: In Vitro Cytochrome P450 Inhibition Study; format: in vitro ADME; details: human liver microsomes (HLM), test compound 0.137 μM to 10 μM, 10 min at 37 °C
T1 construct: incubation with known industry-accepted CYP450 substrates, test articles and microsomes (HLM); from tissue; host or cells: liver microsomes (HLM)
Description: CYP inhibition was evaluated by monitoring corresponding metabolite decrease after incubation with known industry-accepted CYP450 substrates, test articles and microsomes (HLM).
Eight reaction wells with 30 μL of a solution containing 100 mM potassium phosphate, pH 7.4 and 1:3 serial dilutions of the test compound were prepared along with eight wells of 1:3 serial dilutions of Sulfaphenazole (a positive control inhibitor). The assay plates were pre-warmed after 15 μL of probe substrate was added into appropriate wells. Then the reactions were initiated by adding 15 μL of a pre-warmed 8 mM NADPH solution resulting in a final NADPH concentration of 2 mM. The concentrations of test compound ranged from 0.137 μM to 10 μM. A zero time-point control reaction was prepared by adding 135 μL acetonitrile (ACN) containing tolbutamide (200 ng/mL) as internal standard (IS) to 30 μL. of the reaction solution to inactivate the enzymes before adding the probe substrate. A control reaction with no inhibitor was also prepared. After a suitable incubation at 37° C., 10 min, the reactions were terminated by the addition of 135 μL ACN containing IS. The reactions were prepared and analyzed for the metabolite forms of the probe substrate using LC-MS/MS.

HCC1806 Cells = assay: HCC1806 Cell Viability Assay (CellTiter-Glo); format: cell-based; details: Homo sapiens, 144 h, 6 days incubation, read-out: HCC1806 CTG IC50
Description: as §1, with “HCC1806 Cells” for “OVCAR3 Cells”, “Cat #CRL-2335)” for “Cat #HTB-161)”, “of 500” for “of 2000”, “media (RPMI1640+10% FBS).” for “media (RPMI1640+20% FBS+0.01 mg/mL human insulin).”, “blank wells” for “blank well”, “at 37° C.,” for “at 37 C,”

PXR = molecular target: T2, PXR (Homo sapiens, UniProt O75469); assay: In Vitro PXR Activation Study (DPX2 cells); format: cell-based; details: concentration 30 uM, 48 h treatment
T2 construct: expressed in transfected cells; host or cells: DPX2 cells
T2 sequence (O75469 1-434): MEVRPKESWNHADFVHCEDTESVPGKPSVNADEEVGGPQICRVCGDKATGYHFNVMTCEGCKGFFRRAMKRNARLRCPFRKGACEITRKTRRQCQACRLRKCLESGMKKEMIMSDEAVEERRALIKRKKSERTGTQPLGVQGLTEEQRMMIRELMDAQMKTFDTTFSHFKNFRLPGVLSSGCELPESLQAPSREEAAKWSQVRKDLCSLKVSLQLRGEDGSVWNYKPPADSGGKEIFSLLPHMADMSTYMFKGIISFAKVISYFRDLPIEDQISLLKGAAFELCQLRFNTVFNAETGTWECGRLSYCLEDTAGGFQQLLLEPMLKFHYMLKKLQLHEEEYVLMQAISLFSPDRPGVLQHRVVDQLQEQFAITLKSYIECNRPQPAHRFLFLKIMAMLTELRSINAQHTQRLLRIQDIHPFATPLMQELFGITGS
Description: Prepared the culture medium for DPX2 cells using DPX2 culturing medium supplemented with 10% FBS. Cultivated DPX2 cells in T-75 flasks in a cell culture incubator set at 37 C, 5% CO2, 95% relative humidity. Allowed cells to reach 80-90% confluence before detaching and splitting. Rinsed cultivated cells in T-75 flasks with 5 mL PBS. Aspirate off, add 1.5 mL trypsin, and incubated at 37° C. for approximately 5 minutes or until the cells detach and float. Inactivated trypsin by adding excess serum containing medium. Removed cell suspension to a conical tube and pellet cells by centrifugation at 150×g for 5 minutes. Resuspended cells in seeding medium at a density of 3.2×10^5 cells/mL. Transferred 25 μL to each well of 384-well cell culture plate. Placed plate(s) in incubator and incubate at 37° C. for 24 hours.
Prepared stock solutions of test compounds and inducers in DMSO. Final concentration of DMSO in the treatment group should be 0.1%. Removed the plates from the incubator and directly add 25 μL of the negative control, inducers, or test article solutions. Returned plates to the incubator for 48 hours. […] After 48 h of treatment, the cultures were ready for the determination of quantitation of PXR activation.
The fold-activation mRNA level was determined by the equation: […]

T1 sequence (P11712 whole entry): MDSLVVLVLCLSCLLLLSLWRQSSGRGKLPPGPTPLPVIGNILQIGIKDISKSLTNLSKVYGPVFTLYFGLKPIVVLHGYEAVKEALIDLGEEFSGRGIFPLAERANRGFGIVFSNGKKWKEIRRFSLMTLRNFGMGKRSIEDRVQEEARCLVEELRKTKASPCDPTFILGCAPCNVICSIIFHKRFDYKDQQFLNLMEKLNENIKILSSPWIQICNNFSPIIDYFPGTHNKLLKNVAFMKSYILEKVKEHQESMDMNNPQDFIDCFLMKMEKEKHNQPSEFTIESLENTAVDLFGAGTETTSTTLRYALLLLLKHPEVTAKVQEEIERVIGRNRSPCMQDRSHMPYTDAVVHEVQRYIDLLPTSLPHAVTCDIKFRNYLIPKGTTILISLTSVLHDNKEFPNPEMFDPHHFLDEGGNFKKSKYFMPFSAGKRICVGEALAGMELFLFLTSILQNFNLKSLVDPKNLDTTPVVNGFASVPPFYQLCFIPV

O=C1c2ccc(NS(=O)(=O)CCO)cc2C2(CCC3(CC3)CC2)CN1c1ccnc(NC2CC(F)(F)C2)n1 [Compound 21]
IC50 (OVCAR3 Cells): < 200 nM
fraction unbound at 6 hr, 1 μM [1]: 0.002

CCS(=O)(=O)Nc1ccc2c(c1)C1(CCC3(CC3)CC1)CN(c1ccc(C#N)c(S(=O)(=O)NC(C)(C)C)c1)C2=O [Compound 120]
IC50 (OVCAR3 Cells): < 200 nM
fraction unbound at 6 hr, 1 μM [1]: 0.0122

N#Cc1ccc(N2CC3(CCC4(CC4)CC3)c3cc(NS(=O)(=O)CCO)ccc3C2=O)nc1NC1CCC(F)(F)C1 (single isomer, unassigned) [Compound 110]
half-life at 1 μM [2]: 2.52 h
CLint scaled at 1 μM [2]: < 12.4 mL/min/kg

N#Cc1ccc(N2CC3(CCC4(CCC4)CC3)c3cc(NS(=O)(=O)CCO)ccc3C2=O)nc1N1CCC(F)(F)CC1 [Compound 116]
IC50 (OVCAR3 Cells): < 200 nM
MRT (Mouse PK Assay): 6.9 h
half-life (Mouse PK Assay): 4.6 h
IC50 (P450 2C9): 6700 nM

O=C1c2ccc(NS(=O)(=O)CCO)cc2C2(CCC3(CC3)CC2)CN1c1ccnc(NC2CCC(F)(F)C2)n1 (single isomer, unassigned) [Compound 71]
IC50 (OVCAR3 Cells): < 200 nM
fraction unbound at 6 hr, 1 μM [1]: 0.0014

CC1(C)CCC2(CC1)CN(c1ccc(C#N)c(NC3CC(F)(F)C3)n1)C(=O)c1ccc(NS(=O)(=O)CCO)cc12 [Compound 95]
IC50 (OVCAR3 Cells): < 200 nM
half-life at 1 μM [2]: 1.98 h
CLint scaled at 1 μM [2]: 14.6 mL/min/kg

CC1(C)CCC2(CC1)CN(c1ccc(C#N)c(N3CCC(F)(F)CC3)n1)C(=O)c1ccc(NS(=O)(=O)CCO)cc12 [Compound 90]
IC50 (OVCAR3 Cells): < 200 nM
IC50 (P450 2C9): > 10000 nM

COCCOc1ccc(N2CC3(CCC4(CC4)CC3)c3cc(NS(=O)(=O)CCO)ccc3C2=O)nc1N1CCC(F)(F)CC1 [Compound 136]
IC50 (OVCAR3 Cells): < 200 nM
IC50 (P450 2C9): > 10000 nM

O=C1c2ccc(NS(=O)(=O)CCO)cc2C2(CCC3(CC3)CC2)CN1c1ccnc(N2CCC(F)(F)CC2)n1 [Compound 1]
IC50 (OVCAR3 Cells): < 200 nM
IC50 (HCC1806 Cells): < 200 nM
MRT (Mouse PK Assay): 7.5 h
half-life (Mouse PK Assay): 4.8 h

N#Cc1ccc(N2CC3(CCC4(CC4)CC3)c3cc(NS(=O)(=O)CCO)ncc3C2=O)nc1N1CCC(F)(F)CC1 [Compound 80]
IC50 (OVCAR3 Cells): < 200 nM
IC50 (P450 2C9): > 10000 nM

COc1ccc(N2CC3(CCC4(CC4)CC3)c3cc(NS(=O)(=O)CCO)ccc3C2=O)nc1N1CCC(F)(F)CC1 [Compound 133]
IC50 (OVCAR3 Cells): < 200 nM
fraction unbound at 6 hr, 1 μM [1]: 0.001
IC50 (P450 2C9): > 10000 nM
Induction Fold (PXR): 1.7x

N#Cc1ccc(N2CC3(CCC4(CC4)CC3)c3cc(NS(=O)(=O)CCO)ccc3C2=O)nc1N1CCC(F)(F)CC1 [Compound 27]
IC50 (OVCAR3 Cells): < 200 nM
IC50 (HCC1806 Cells): < 200 nM
MRT (Mouse PK Assay): 6.2 h
half-life (Mouse PK Assay): 3.7 h
Induction Fold (PXR): 1.8x

N#Cc1ccc(N2CC3(CCC4(CC4)CC3)c3cc(NS(=O)(=O)CCO)ccc3C2=O)nc1NC1CC(F)(F)C1 [Compound 56]
IC50 (OVCAR3 Cells): < 200 nM
half-life at 1 μM [2]: 2.37 h
CLint scaled at 1 μM [2]: < 12.4 mL/min/kg
